# Data taken from BindingDB's records for doi:10.1021/bi900258v (Pfizer, 2009).
# Assays:
# [1] = target: T1, Serine/threonine-protein kinase Chk1 (Homo sapiens, UniProt O14757); assay: CHK1 Inhibition Assay; details: pH 7.4; 22 °C
# T1 sequence (O14757 whole entry): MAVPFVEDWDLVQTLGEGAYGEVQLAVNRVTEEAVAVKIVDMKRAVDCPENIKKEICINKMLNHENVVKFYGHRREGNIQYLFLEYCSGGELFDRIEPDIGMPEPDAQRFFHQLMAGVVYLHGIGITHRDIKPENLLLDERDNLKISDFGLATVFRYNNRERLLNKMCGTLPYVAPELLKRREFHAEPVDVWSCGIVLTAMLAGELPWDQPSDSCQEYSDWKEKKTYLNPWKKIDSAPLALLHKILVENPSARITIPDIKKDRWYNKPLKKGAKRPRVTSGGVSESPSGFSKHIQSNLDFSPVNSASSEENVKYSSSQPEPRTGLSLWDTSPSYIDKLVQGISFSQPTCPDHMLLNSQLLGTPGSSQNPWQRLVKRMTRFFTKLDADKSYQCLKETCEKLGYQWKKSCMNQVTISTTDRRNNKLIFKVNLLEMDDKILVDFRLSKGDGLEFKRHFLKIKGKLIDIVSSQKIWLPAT
# From the text: The inhibitors reported in this study bind to CHK1 according to a general mechanism illustrated in Scheme 1 where E, S, and I stand for enzyme, substrate and inhibitor using Caliper LC-3000 instrument (Caliper Life Science).
# [2] = target: T1, Serine/threonine-protein kinase Chk1; assay: Surface Plasmon Resonance BindingAssay; details: pH 8; 20 °C
# Protocol: Surface plasmon resonance (SPR) biosensor binding studies were conducted using a Biacore 3000 instrument (GE Healtchare).
Ki [1],Ki [2],Compound
1.75 nM,5.14 nM,O=C1NN=Cc2c(C(=O)N3C[C@@H](O)[C@@H](O)C3)[nH]c3cc(NC(=O)C4C[C@H]4c4ccccc4)cc1c23 (some centres undefined) [CHK1 compound 1]
146 nM,290 nM,CC(C)(C)c1ccc(C(=O)NC(=O)Nc2cccc3ccccc23)cc1[N+](=O)O [CHK1 compound 3]
